Measured values as given in patent publication US8648066B2 (Exelixis, Inc., priority 2009, dated 2014).

Biological target: mTOR/GbL/Raptor (mTORC1) (Homo sapiens, UniProt P42345)
Assay: mTOR/GbL/Raptor (mTORC1) ELISA assay
Format: biochemical
Settings: phosphorylation of 4E-BP1; 0.2 nM mTORC1, 10 μM ATP; read-out: IC50 in this assay (mTORC1 ELISA)
Outline: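 Human mTORC1 (0.2 nM) phosphorylated 50 nM His-tagged 4E-BP1 with 10 µM ATP in HEPES pH 7.2 containing 10 mM MnCl2, 120 min at ambient temperature. Substrate was captured on Ni-chelate plates; phospho-4E-BP1 was detected by primary antibody and HRP secondary with luminescence.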

Row | Compound | IC50 [nM]
1 | CC1(C)CCc2ncnc(N3CCOc4ccc(-c5cnc(N)c(S(=O)(=O)NCC(O)C(F)(F)F)c5)cc4C3)c2C1 (stereo not shown) [Example 373, 2-amino-5-[4-(6,6-dimethyl-5,6,7,8-tetrahydroquinazolin-4-yl)-2,3,4,5-tetrahydro-1,4-benzoxazepin-7-yl]-N-(3,3,3-trifluoro-2-hydroxypropyl)pyridine-3-sulfonamide] | ≤ 10
2 | CC[C@H]1CCc2c(nc(C)nc2N2CCOc3ccc(-c4cnc(N)c(S(=O)(=O)N5CCC(C)(N)C5)c4)cc3C2)C1 (stereo partly drawn) [Example 441, 3-[(3-amino-3-methylpyrrolidin-1-yl)sulfonyl]-5-{4-[(7S)-7-ethyl-2-methyl-5,6,7,8-tetrahydroquinazolin-4-yl]-2,3,4,5-tetrahydro-1,4-benzoxazepin-7-yl}pyridin-2-amine] | 10 to 50
3 | Cc1nc2ccc(-c3ccc4c(c3)CN(c3ncnc5cc(Cl)c(I)cc35)CCO4)cc2[nH]1 [Example 35, 4-(7-chloro-6-iodoquinazolin-4-yl)-7-(2-methyl-1H-benzimidazol-6-yl)-2,3,4,5-tetrahydro-1,4-benzoxazepine] | 50 to 250
4 | CC1=CC(C)(C)Cc2c1ncnc2N1CCOc2ccc(-c3cnc(N)c(S(=O)(=O)N[C@@H]4CCN(C)C4)c3)cc2C1 [Example 422, 2-amino-N-[(3R)-1-methylpyrrolidin-3-yl]-5-[4-(6,6,8-trimethyl-5,6-dihydroquinazolin-4-yl)-2,3,4,5-tetrahydro-1,4-benzoxazepin-7-yl]pyridine-3-sulfonamide] | 50 to 250
5 | Cc1nc(C)c(CC2CC2)c(N2CCOc3ccc(-c4cnc5nc(C)[nH]c5c4)cc3C2)n1 [Example 492, 4-[5-(cyclopropylmethyl)-2,6-dimethylpyrimidin-4-yl]-7-(2-methyl-1H-imidazo[4,5-b]pyridin-6-yl)-2,3,4,5-tetrahydro-1,4-benzoxazepine] | 10 to 50
6 | CCNc1nc2ccc(-c3ccc4c(c3)CN(c3nc(C)nc5cc(F)ccc35)CCO4)cc2[nH]1 [Example 295, N-ethyl-6-[4-(7-fluoro-2-methylquinazolin-4-yl)-2,3,4,5-tetrahydro-1,4-benzoxazepin-7-yl]-1H-benzimidazol-2-amine] | 50 to 250
7 | c1ccc2c(N3CCOc4ccc(-c5ccc6nccnc6c5)cc4C3)ccnc2c1 [Example 132, 4-quinolin-4-yl-7-quinoxalin-6-yl-2,3,4,5-tetrahydro-1,4-benzoxazepine] | ≥ 2000
8 | Cc1nc2c(c(N3CCOc4ccc(-c5cnc(N)c(S(=O)(=O)N[C@@H]6CCN(C)C6)c5)cc4C3)n1)CC(C)(C)CC2 [Example 421, 2-amino-N-[(3R)-1-methylpyrrolidin-3-yl]-5-[4-(2,6,6-trimethyl-5,6,7,8-tetrahydroquinazolin-4-yl)-2,3,4,5-tetrahydro-1,4-benzoxazepin-7-yl]pyridine-3-sulfonamide] | 250 to 1000
9 | Cc1ncnc(N2CCOc3ccc(-c4ccc5nc(N)cn5c4)cc3C2)c1Cc1ccc(F)cc1 [Example 145, 6-(4-{5-[(4-fluorophenyl)methyl]-6-methylpyrimidin-4-yl}-2,3,4,5-tetrahydro-1,4-benzoxazepin-7-yl)imidazo[1,2-a]pyridin-2-amine] | 10 to 50
10 | CCCc1nc2cc(-c3ccc4c(c3)CN(c3ncnc5c3CC(C)(C)CC5)CCO4)cnc2[nH]1 [Example 225, 4-(6,6-dimethyl-5,6,7,8-tetrahydroquinazolin-4-yl)-7-(2-propyl-3H-imidazo[4,5-b]pyridin-6-yl)-2,3,4,5-tetrahydro-1,4-benzoxazepine] | ≤ 10
11 | COc1ccc(-c2ccc3c(c2)CN(c2nc(CN(C)C)nc4c2CC(C)(C)CC4)CCO3)cc1OC(F)F [Example 649, 1-{4-[7-{3-[(difluoromethyl)oxy]-4-(methyloxy)phenyl}-2,3-dihydro-1,4-benzoxazepin-4(5H)-yl]-6,6-dimethyl-5,6,7,8-tetrahydroquinazolin-2-yl}-N,N-dimethylmethanamine] | 250 to 1000
12 | CC[C@H]1CCc2c(ncnc2N2CCOc3ccc(-c4cnc(N)c(S(=O)(=O)N5CCC(C)(N)C5)c4)cc3C2)C1 (stereo partly drawn) [Example 442, 3-[(3-amino-3-methylpyrrolidin-1-yl)sulfonyl]-5-{4-[(7S)-7-ethyl-5,6,7,8-tetrahydroquinazolin-4-yl]-2,3,4,5-tetrahydro-1,4-benzoxazepin-7-yl}pyridin-2-amine] | 10 to 50
13 | Cc1nc(C)c(Cc2ccc(F)cc2)c(N2CCOc3ccc(-c4ccc5nc(C)[nH]c5c4)cc3C2)n1 [Example 97, 4-{5-[(4-fluorrophenyl)methyl]-2,6-dimethylpyrimidin-4-yl}-7-(2-methyl-1H-benzimidazol-6-yl)-2,3,4,5-tetrahydro-1,4-benzoxazepine] | ≤ 10
14 | COc1cc2c(N3CCOc4ccc(-c5ccc6nc(C)[nH]c6c5)cc4C3)ncnc2cc1O [Example 157, 4-[7-(2-methyl-1H-benzimidazol-6-yl)-2,3-dihydro-1,4-benzoxazepin-4(5H)-yl]-6-(methyloxy)quinazolin-7-ol] | 250 to 1000
15 | CC1(C)CCc2ncnc(N3CCOc4ccc(-c5cnc(C(N)=O)c(N)c5)cc4C3)c2C1 [Example 457, 3-amino-5-[4-(6,6-dimethyl-5,6,7,8-tetrahydroquinazolin-4-yl)-2,3,4,5-tetrahydro-1,4-benzoxazepin-7-yl]pyridine-2-carboxamide] | 50 to 250
16 | Cc1nc2ncc(-c3ccc4c(c3)CN(c3nc(CNCCF)nc5c3CC(C)(C)CC5)CCO4)cc2[nH]1 [Example 593, N-({6,6-dimethyl-4-[7-(2-methyl-1H-imidazo[4,5-b]pyridin-6-yl)-2,3-dihydro-1,4-benzoxazepin-4(5H)-yl]-5,6,7,8-tetrahydroquinazolin-2-yl}methyl)-2-fluoroethanamine] | ≤ 10
17 | COCCNCc1nc2c(c(N3CCOc4ccc(-c5ccc6nc(C)[nH]c6c5)cc4C3)n1)CC(C)(C)CC2 [Example 585, N-({6,6-dimethyl-4-[7-(2-methyl-1H-benzimidazol-6-yl)-2,3-dihydro-1,4-benzoxazepin-4(5H)-yl]-5,6,7,8-tetrahydroquinazolin-2-yl}methyl)-2-(methyloxy)ethanamine] | 10 to 50
18 | Cc1nc2c(c(N3CCOc4ccc(-c5cnc(N)c(S(=O)(=O)N(C)C)c5)cc4C3)n1)CC(C)(C)CC2 [Example 417, 2-amino-N,N-dimethyl-5-[4-(2,6,6-trimethyl-5,6,7,8-tetrahydroquinazolin-4-yl)-2,3,4,5-tetrahydro-1,4-benzoxazepin-7-yl]pyridine-3-sulfonamide] | 50 to 250
19 | CC1(C)CCc2ncnc(N3CCOc4ccc(-c5cnc(C#N)c(NS(C)(=O)=O)c5)cc4C3)c2C1 [Example 625, N-{2-cyano-5-[4-(6,6-dimethyl-5,6,7,8-tetrahydroquinazolin-4-yl)-2,3,4,5-tetrahydro-1,4-benzoxazepin-7-yl]pyridin-3-yl}methanesulfonamide] | 50 to 250
20 | Cc1c(Nc2ccccc2)ncnc1N1CCOc2ccc(-c3cnc4nc(N)[nH]c4c3)cc2C1 [Example 540, 6-{4-[5-methyl-6-(phenylamino)pyrimidin-4-yl]-2,3,4,5-tetrahydro-1,4-benzoxazepin-7-yl}-1H-imidazo[4,5-b]pyridin-2-amine] | 10 to 50
21 | Cc1ncnc(N2CCOc3ccc(-c4ccc5nc(N)nn5c4)cc3C2)c1Cc1ccc(F)cc1 [Example 141, 6-(4-{5-[(4-fluorophenyl)methyl]-6-methylpyrimidin-4-yl}-2,3,4,5-tetrahydro-1,4-benzoxazepin-7-yl)[1,2,4]triazolo[1,5-a]pyridin-2-amine] | 10 to 50
22 | CCCc1c(C)nc(CN(C)C)nc1N1CCOc2ccc(-c3cnc4sc(N)nc4c3)cc2C1 [Example 657, 6-(4-{2-[(dimethylamino)methyl]-6-methyl-5-propylpyrimidin-4-yl}-2,3,4,5-tetrahydro-1,4-benzoxazepin-7-yl)[1,3]thiazolo[5,4-b]pyridin-2-amine] | 50 to 250
23 | CC1(C)CCc2ncnc(N3CCOc4ccc(-c5cnc(N)nc5)cc4C3)c2C1 [Example 523, 5-[4-(6,6-dimethyl-5,6,7,8-tetrahydroquinazolin-4-yl)-2,3,4,5-tetrahydro-1,4-benzoxazepin-7-yl]pyrimidin-2-amine] | 50 to 250
24 | Cc1nc2ccc(-c3ccc4c(c3)CN(c3ncnc(C)c3Cc3cccc(Cl)c3)CCO4)cc2[nH]1 [Example 73, 4-{5-[(3-chlorophenyl)methyl]-6-methylpyrimidin-4-yl}-7-(2-methyl-1H-benzimidazol-6-yl)-2,3,4,5-tetrahydro-1,4-benzoxazepine] | ≤ 10
25 | Cc1nc2ccc(-c3ccc4c(c3)CN(c3nccc5ccccc35)CCO4)cc2[nH]1 [Example 105, 4-isoquinolin-1-yl-7-(2-methyl-1H-benzimidazol-6-yl)-2,3,4,5-tetrahydro-1,4-benzoxazepine] | 50 to 250
26 | Cc1nc2ncc(-c3ccc4c(c3)CN(c3nc(CN[C@@H](C)C(=O)O)nc5c3CC(C)(C)CC5)CCO4)cc2[nH]1 [Example 596, N-({6,6-dimethyl-4-[7-(2-methyl-1H-imidazo[4,5-b]pyridin-6-yl)-2,3-dihydro-1,4-benzoxazepin-4(5H)-yl]-5,6,7,8-tetrahydroquinazolin-2-yl}methyl)alanine] | ≤ 10
27 | c1ccc2c(N3CCOc4ccc(-c5cn[nH]c5)cc4C3)ccnc2c1 [Example 137, 7-(1H-pyrazol-4-yl)-4-quinolin-4-yl-2,3,4,5-tetrahydro-1,4-benzoxazepine] | 1000 to 2000
28 | Cc1nc2ncc(-c3ccc4c(c3)CN(c3nc(CNCC(C)C)nc5c3CC(C)(C)CC5)CCO4)cc2[nH]1 [Example 594, N-({6,6-dimethyl-4-[7-(2-methyl-1H-imidazo[4,5-b]pyridin-6-yl)-2,3-dihydro-1,4-benzoxazepin-4(5H)-yl]-5,6,7,8-tetrahydroquinazolin-2-yl}methyl)-2-methylpropan-1-amine] | 10 to 50
